Reference: patent US8008452B2, “Phosphorylated Ndr kinase” (Novartis Forschungesstiftung, Zweigniederlassung Friedrich …, priority 2002, dated 2011)

Experiments:
[1] = system: GST-NDR1; test: GST-NDR1 in vitro autophosphorylation, incorporated 32P by Cerenkov counting; format: biochemical, human; conditions: for amount of incorporated 32P (autophosphorylation), −S100B / amount of incorporated 32P (autophosphorylation), +S100B: GST-NDR1 variant; for amount of incorporated 32P (autophosphorylation), −S100B: 1 microgram, autophosphorylated 2 hours without further additions, pmol ATP/pmol GST-NDR1; for amount of incorporated 32P (autophosphorylation), +S100B: 2 hours in the presence of 1 mM CaCl2 and 10 microM bovine S100B, in pmol ATP/pmol GST-NDR1; for autophosphorylation rate of GST-NDR1 mutant (in words): compared with wild type
Protocol: BL21-DE3-pRep4 E. coli strain was transformed with the pGEX-2T_NDR1 wild type or mutant plasmids. BL21-DE3 is a protease-deficient E. coli strain and pRep4 is a Laclq repressor-bearing plasmid both available commercially. Optionally, if desired, an E. coli strain comprising GroESL can be used, which expresses a chaperone protein that stabilizes the kinase. Mid-logarithmic phase cells were induced with 0.5 mM isopropyl beta-D-thiogalactopyranoside (IPTG) for 4 hours at 30° C. Bacteria were lysed using a French press in the presence of 1 mg/ml lysosyme, and the fusion proteins were purified on glutathione-agarose (Amersham Pharmacia Biotech) as described by the manufacturers. Recombinant proteins were assayed for kinase activity as described below and autophosphorylation was determined after SDS-PAGE separation either by Cerenkov counting or by exposure to a PhosphorImager screen followed by analysis with ImageQuant software (Molecular Dynamics).
In brief, 1 microgram of purified GST-NDR1 (in solution ˜0.5 microM) wild type, kinase dead (K118A), and alanine mutants of phosphorylation residues Thr74, Ser281, and Thr444 were autophosphorylated for 2 hours in vitro without further additions or in the presence of 1 mM CaCl2 and 10 microM bovine S100B. Proteins were visualized on SDS gels using Coomassie Blue R-350 stained SDS-PAGE gel, and [gamma-^32P]ATP-labelled proteins were visualized by autoradiography of the gels developed on a Phosphorimager screen. The amount of incorporated ^32P was quantified by Cerenkov counting.

[2] = system: HA-NDR1; test: HA-NDR1 kinase assay on 12CA5 immunoprecipitates from transfected, treated COS-1 cells; format: cell-based, human; design: kinase activity of HA-NDR1 variants, −OA: unit not given here; conditions: COS-1 cells; for kinase activity of HA-NDR1 variants, +OA: 1 microM okadaic acid 1 h; for kinase activity of HA-NDR1 variants, −OA: solvent alone 1 h
Protocol: In some experiments, the cells were treated for 60 min with 1 microM okadaic acid in 0.1% N,N-dimethylformamide (DMF) (Alexis Corp.), 50 microM BAPTA-AM (1,2-bis (o-aminophenoxy) ethane-N,N,N′,N′-tetraacetic acid tetra (acetoxy-methyl)ester) in 0.1% diimethylsulfoxide (DMSO; Sigma), or 20 microM thapsigargin in 0.1% DMSO (Alomone) 24 hours after transfection.
Transfected and treated COS-1 cells were washed once with ice-cold PBS, and harvested by rubber policeman in 1 ml ice-cold PBS containing 1 mM Na3VO4 and 20 mM beta-glycerophosphate before lysis in 500 microliters of IP buffer (20 mM Tris-HCl pH 8.0, 150 mM NaCl, 1% Nonidet P-40, 10% glycerol, 1 mM Na3VO4, 20 mM beta-glycerolphosphate, 1 microM microcystin-LR, 50 mM NaF, 0.5 mM PMSF, 4 microM leupeptin, 1 mM benzamidine, and 1 tablet/10 ml IP of Complete protease inhibitors (Roche)). Lysates were centrifuged at 20 000 g for 20 min and triplicate aliquots (200 microg) of supernatant were precleared with protein A-Sepharose (Amersham Pharmacia Biotech) for 60 min and mixed subsequently for 3 h at 4° C. with 12CA5 antibody prebound to protein A-Sepharose (˜1 microg antibody bound to 2 microl beads). The beads were then washed twice with IP buffer, once for 10 min with IP buffer containing 1 M NaCl, once again for 10 min with IP buffer, and finally twice with 20 mM Tris-HCl pH 7.5 containing 4 microM leupeptin and 1 mM benzamidine. Thereafter, beads were resuspended in 30 microliters buffer containing 20 mM Tris-HCl pH 7.5, 10 mM MgCl2, 1 mM DTT, 100 microM [gamma-^32P]ATP (˜0.1 microCi/microliter), 1 microM cAMP-dependent protein kinase inhibitor peptide PKI (Bachem), 4 microM leupeptin, 1 mM benzamidine, 1 microM microcystin-LR, and 1 mM NDR1 substrate peptide ([…]). After 60 min incubation at 30° C., 15 microliters of supernatant were removed, and phosphate incorporation into the substrate peptide determined as described for GST-NDR1 above.
COS-1 cells expressing either wild type HA-NDR1 or the indicated mutants were treated for 1 h with 1 microM okadaic acid or with solvent alone. HA-tagged NDR kinase variants were then immunoprecipitated (out of 100 microgram of detergent extracts) with 12CA5 monoclonal antibody and assayed for kinase activity by a peptide kinase assay as described above.
Mock-transfected or HA-NDR1-expressing COS-1 cells were treated for 1 h with […], 50 microM BAPTA-AM, and […] or with solvent (0.1% DMF or 0.1% DMSO) alone. 12CA5 immunoprecipitates (out of 100 microgram protein extract) were then assayed using the peptide kinase assay for NDR1 kinase activity.
To test whether hMOB1 plays a role in NDR activation, myc-hMOB1 or the empty vector was cotransfected with HA-NDR1 in COS1 cells and treated with OA. 12CA5 immunoprecipitates were then assayed using the peptide kinase assay for HA-NDR kinase activity. […] GST-MOB and GST respectively was added to immunoprecipitated HA-NDR and kinase reaction were performed. The reactions were resolved on a 10% SDS PAGE and the radioactivity visualised by using a phosphoimager.

[3] = system: myc-hMOB1; test: Co-immunoprecipitation of HA-NDR and myc-hMOB1 from COS-1 cells; format: binding, human; conditions: COS-1 cells treated with OA prior to lysis
Protocol: HA-tagged hNDR and myc-tagged hMOB1 were cotransfected in COS1 cells, which were stimulated with okadaic acid or solvent alone. After cell lysis and extract preparation, HA-NDR was immunoprecipitated and co-immunoprecipitated myc-hMOB1 detected or Myc-hMOB1 was immunoprecipitated and co-immunoprecipitated HA-NDR detected.
HA-NDR, wt and mutants, and myc-hMOB1 were cotransfected into COS-1 cells and the cells were treated with OA prior to lysis. HA-NDR was immunoprecipitated and the coimmunoprecipitated myc-hMOB1 detected. […] Furthermore, the two important in vivo phosphorylation sites of NDR, serine-281 in the activation segment and the hydrophobic motif site threonine-444 in the C-terminal regulatory domain were tested, as well as the threonine 74 site in the N-terminal regulatory domain, for their role in NDR-MOB interaction.
HA-NDR N-terminal point mutants and myc-mob1 were co-transfected into COS1 cells which were treated with OA prior to lysis. HA-NDR mutants were immunoprecipitated and coimmunoprecipitated myc-hMOB1 detected.
In this Example, the effect of treatment of COS1 cells with BAPTA-AM on the NDR-MOB Interaction was determined. HA-NDR and myc-MOB1 was cotransfected into COS1 cells and the cells were treated with BAPTA-AM and OA or the solvents alone prior to lysis. HA-NDR was immunoprecipitated and co-immunoprecipitated myc-MOB1 detected. The kinase activity of the HA-NDR immunoprecipitates was measured in a peptide kinase assay.

| Substance | amount of incorporated 32P (autophosphorylation), −S100B [1] | amount of incorporated 32P (autophosphorylation), +S100B [1] | autophosphorylation rate of GST-NDR1 mutant (in words) [1] | kinase activity of HA-NDR1 variants, +OA [2] | kinase activity of HA-NDR1 variants, −OA [2] | interaction of HA-NDR variant with myc-hMOB1 [3] | interaction of HA-NDR variant with myc-hMOB1 ([3]; listed as threonine 74) |
| --- | --- | --- | --- | --- | --- | --- | --- |
| K118A: NDR1 kinase dead mutant, Lys 118 to alanine; GST fusion or HA-tagged | 0.0076 | 0.0064 | did not show detectable autophosphorylation | 0.0204 | 0.0107 | still able to interact with hMOB1 | – |
| T74A: NDR1 alanine mutant of phosphorylation residue Thr74; GST fusion or HA-tagged | 0.158 | 0.2072 | negligible reduction | 1.053 | 0.124 | complete absence of interaction with MOB1 | not tolerated for the interaction with MOB |
| T444A: NDR1 alanine mutant of phosphorylation residue Thr444; GST fusion or HA-tagged | 0.1232 | 0.2412 | significant decrease | 0.6019 | 0.1067 | still interact with MOB1 | – |
